Assays:
c-Kit(V654A) = biological target: T1, c-Kit(V654A) (Homo sapiens, UniProt P10721, V654A); test: c-Kit(V654A) assay (33P-ATP filter binding kinase assay); format: biochemical; conditions: recombinant human c-Kit aa 544-end V654A, ATP 200 μM
T1 construct: recombinant human c-Kit, amino acids 544-end containing the V654A mutation; GST (N)
Summary of the method: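 Radiometric filter-binding read-out: substrate 33P incorporation counted by scintillation after P30 filtermat washes in 75 mM phosphoric acid and methanol. Enzyme: N-GST recombinant human c-Kit aa 544-end carrying V654A.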

[1] = biological target: T2, GIST430/654 cell line expressing mutated constitutively active cKIT receptor tyrosine kinase (Δ560-576 deletion and V654A point mutation) (Homo sapiens, UniProt P10721, DEL560-576/V654A); test: Cellular cKIT autophosphorylation (phospho-Y307-cKIT, Luminex bead assay) in GIST430/654 cells; format: cell-based; conditions: compounds 45 min, read-out: GIST 430/654 IC50
T2 construct: endogenous in cells; host or cells: GIST430/654 cells
T2 sequence (P10721 with tags, fused parts or gaps DEL560-576/V654A): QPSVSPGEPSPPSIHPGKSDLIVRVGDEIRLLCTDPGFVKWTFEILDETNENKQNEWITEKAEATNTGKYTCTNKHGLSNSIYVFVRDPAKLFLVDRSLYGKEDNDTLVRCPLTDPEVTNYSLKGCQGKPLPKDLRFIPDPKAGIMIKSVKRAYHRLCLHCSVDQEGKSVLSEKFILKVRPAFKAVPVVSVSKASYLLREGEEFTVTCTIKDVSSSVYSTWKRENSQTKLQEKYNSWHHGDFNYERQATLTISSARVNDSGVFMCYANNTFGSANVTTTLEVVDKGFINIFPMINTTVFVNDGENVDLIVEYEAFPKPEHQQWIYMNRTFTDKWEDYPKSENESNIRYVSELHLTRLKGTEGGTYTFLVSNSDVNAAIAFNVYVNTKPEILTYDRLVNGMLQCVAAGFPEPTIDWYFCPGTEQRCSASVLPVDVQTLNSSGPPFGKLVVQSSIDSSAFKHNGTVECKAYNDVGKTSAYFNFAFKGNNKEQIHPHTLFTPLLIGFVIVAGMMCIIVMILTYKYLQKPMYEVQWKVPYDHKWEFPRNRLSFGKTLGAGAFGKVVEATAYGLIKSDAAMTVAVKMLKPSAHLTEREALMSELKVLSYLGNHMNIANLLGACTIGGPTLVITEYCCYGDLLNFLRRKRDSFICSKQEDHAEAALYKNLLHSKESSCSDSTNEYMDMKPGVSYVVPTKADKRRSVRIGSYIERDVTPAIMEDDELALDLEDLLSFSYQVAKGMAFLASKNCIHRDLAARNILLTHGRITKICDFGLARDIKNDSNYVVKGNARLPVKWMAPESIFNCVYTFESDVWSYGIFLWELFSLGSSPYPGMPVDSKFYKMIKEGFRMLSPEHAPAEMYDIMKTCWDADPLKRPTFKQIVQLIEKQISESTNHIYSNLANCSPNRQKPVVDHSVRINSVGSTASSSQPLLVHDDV
Summary of the method: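 GIST430 (Δ560-576) and imatinib-resistant GIST430/654 (plus V654A; grown with 100 nM imatinib) cells were plated in IMDM/15% FCS and treated next day with serially diluted compound for 45 min. Lysates were captured on anti-total-cKIT Luminex beads overnight at 4 °C and probed for phospho-Y307. IC50 was taken from percent of 0.3% DMSO control.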

T1 sequence (P10721 544-976 V654A): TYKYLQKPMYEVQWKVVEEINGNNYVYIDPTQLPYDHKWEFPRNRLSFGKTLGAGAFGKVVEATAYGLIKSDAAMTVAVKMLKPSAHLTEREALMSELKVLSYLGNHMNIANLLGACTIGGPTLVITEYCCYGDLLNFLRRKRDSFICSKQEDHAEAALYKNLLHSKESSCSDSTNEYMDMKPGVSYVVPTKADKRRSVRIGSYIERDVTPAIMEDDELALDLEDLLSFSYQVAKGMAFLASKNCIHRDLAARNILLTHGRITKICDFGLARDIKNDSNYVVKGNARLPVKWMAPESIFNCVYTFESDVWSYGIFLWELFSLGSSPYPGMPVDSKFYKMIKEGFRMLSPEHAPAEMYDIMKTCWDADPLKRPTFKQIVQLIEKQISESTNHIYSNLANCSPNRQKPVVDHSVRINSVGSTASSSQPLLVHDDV

Q: With `Cn1cc(-c2ccc(CNc3cc(-c4cnc5cc(OCCc6nccn6C)ccn45)ncn3)cc2)cn1` [A111, (6-{7-[2-(1-methyl-1H-imidazol-2-yl)-ethoxy]imidazo[1,2-a]pyridin-3-yl}-pyrimidin-4-yl)-[4-(1-methyl-1H-pyrazol-4-yl)-benzyl]-amine] as the molecule, how does the IC50 (c-Kit(V654A)) read?
A: 7.9 nM

Q: And the IC50 [1]?
A: 63 nM

Q: How did the IC50 (c-Kit(V654A)) turn out when `Cn1ncc(-c2ccc(CNc3cc(-c4cnc5cc(OCc6cccnc6)ccn45)ncn3)cc2)n1` [A112, [4-(2-methyl-2H-[1,2,3]triazol-4-yl)-benzyl]-{6-[7-(pyridin-3-ylmethoxy)-imidazo[1,2-a]pyridin-3-yl]-pyrimidin-4-yl}-amine] was run?
A: 40 nM

Q: What about the IC50 [1] of the same molecule?
A: 260 nM

Q: Which IC50 (c-Kit(V654A)) does the source give for `Cn1cc(-c2ccc(CNc3cc(-c4cnc5cc(OCc6nccn6C)ccn45)ncn3)cc2)cn1` [A113, {6-[7-(1-methyl-1H-imidazol-2-ylmethoxy)-imidazo[1,2-a]pyridin-3-yl]-pyrimidin-4-yl}-[4-(1-methyl-1H-pyrazol-4-yl)-benzyl]-amine] here?
A: 14 nM

Q: And the IC50 [1]?
A: 620 nM

Q: `CN1CCC(CCOc2ccn3c(-c4cc(NCc5ccc(-c6cnn(C)c6)cc5)ncn4)cnc3c2)C1` (stereo not shown) [A115, [4-(1-methyl-1H-pyrazol-4-yl)-benzyl]-(6-{7-[2-(1-methyl-pyrrolidin-3-yl)-ethoxy]-imidazo[1,2-a]pyridin-3-yl}-pyrimidin-4-yl)-amine] was tested. Which IC50 (c-Kit(V654A)) did it give?
A: 3.7 nM

Q: What about the IC50 [1] of the same molecule?
A: 49 nM

Q: Which results are given for `CN1CCC(CCOc2ccn3c(-c4cc(NCc5ccc(-c6cnn(C)n6)cc5)ncn4)cnc3c2)C1` (stereo not shown) [A116, (6-{7-[2-(1-methyl-pyrrolidin-3-yl)-ethoxy]-imidazo[1,2-a]pyridin-3-yl}-pyrimidin-4-yl)-[4-(2-methyl-2H-[1,2,3]triazol-4-yl)-benzyl]-amine]?
A: IC50 (c-Kit(V654A)): 1.6 nM; IC50 [1]: 48 nM

Q: With `CN1CCO[C@@H](COc2ccn3c(-c4cc(NCc5ccc(-c6cnn(C)c6)cc5)ncn4)cnc3c2)C1` [A117, {6-[7-((R)-4-methyl-morpholin-2-ylmethoxy)-imidazo[1,2-a]pyridin-3-yl]-pyrimidin-4-yl}-[4-(1-methyl-1H-pyrazol-4-yl)-benzyl]-amine] as the molecule, how does the IC50 (c-Kit(V654A)) read?
A: 6 nM

Q: What about the IC50 [1] of the same molecule?
A: 30 nM

Q: Which IC50 (c-Kit(V654A)) does the source give for `CN1CCO[C@H](COc2ccn3c(-c4cc(NCc5ccc(-c6cnn(C)c6)cc5)ncn4)cnc3c2)C1` [A118, {6-[7-((S)-4-methyl-morpholin-2-ylmethoxy)-imidazo[1,2-a]pyridin-3-yl]-pyrimidin-4-yl}-[4-(1-methyl-1H-pyrazol-4-yl)-benzyl]-amine] here?
A: 4.7 nM

Q: What about the IC50 [1] of the same molecule?
A: 40 nM

Q: `Cn1ncc(-c2ccc(CNc3cc(-c4cnc5cc(OCCC6CCN(C7COC7)C6)ccn45)ncn3)cc2)n1` (stereo not shown) [A119, [4-(2-methyl-2H-[1,2,3]triazol-4-yl)-benzyl]-(6-{7-[2-(1-oxetan-3-yl-pyrrolidin-3-yl)-ethoxy]-imidazo[1,2-a]pyridin-3-yl}-pyrimidin-4-yl)-amine] was tested. Which IC50 (c-Kit(V654A)) did it give?
A: 3.4 nM

Q: And the IC50 [1]?
A: 62 nM

Q: `CN1CCO[C@@H](COc2ccn3c(-c4cc(NCc5ccc(-c6cnn(C)n6)cc5)ncn4)cnc3c2)C1` [A121, {6-[7-((R)-4-methyl-morpholin-2-ylmethoxy)-imidazo[1,2-a]pyridin-3-yl]-pyrimidin-4-yl}-[4-(2-methyl-2H-[1,2,3]triazol-4-yl)-benzyl]-amine] was tested. Which IC50 (c-Kit(V654A)) did it give?
A: 3.6 nM

Q: What about the IC50 [1] of the same molecule?
A: 34 nM

Q: `CN1CCO[C@H](COc2ccn3c(-c4cc(NCc5ccc(-c6cnn(C)n6)cc5)ncn4)cnc3c2)C1` [A122, {6-[7-((S)-4-methyl-morpholin-2-ylmethoxy)-imidazo[1,2-a]pyridin-3-yl]-pyrimidin-4-yl}-[4-(2-methyl-2H-[1,2,3]triazol-4-yl)-benzyl]-amine] was tested. Which IC50 (c-Kit(V654A)) did it give?
A: 26 nM

Q: What about the IC50 [1] of the same molecule?
A: 260 nM

Q: Which IC50 (c-Kit(V654A)) does the source give for `Cn1cc(-c2ccc(CNc3cc(-c4cnc5cc(OCCC6CCN(C7COC7)C6)ccn45)ncn3)cc2)cn1` (stereo not shown) [A123, [4-(1-methyl-1H-pyrazol-4-yl)-benzyl]-(6-{7-[2-(1-oxetan-3-yl-pyrrolidin-3-yl)-ethoxy]-imidazo[1,2-a]pyridin-3-yl}-pyrimidin-4-yl)-amine] here?
A: 5.8 nM

Q: And the IC50 [1]?
A: 56 nM

Q: `CN1CCOC[C@@H]1COc1ccn2c(-c3cc(NCc4ccc(-c5cnn(C)c5)cc4)ncn3)cnc2c1` [A124, N-{[4-(1-methyl-1H-pyrazol-4-yl)phenyl]methyl}-6-(7-{[(3R)-4-methylmorpholin-3-yl]methoxy}imidazo[1,2-a]pyridin-3-yl)pyrimidin-4-amine] was tested. Which IC50 (c-Kit(V654A)) did it give?
A: 7.4 nM

Q: And the IC50 [1]?
A: 53 nM

Q: Which results are given for `CN1CCOC[C@H]1COc1ccn2c(-c3cc(NCc4ccc(-c5cnn(C)c5)cc4)ncn3)cnc2c1` [A125, N-{[4-(1-methyl-1H-pyrazol-4-yl)phenyl]methyl}-6-(7-{[(3S)-4-methylmorpholin-3-yl]methoxy}imidazo[1,2-a]pyridin-3-yl)pyrimidin-4-amine]?
A: IC50 (c-Kit(V654A)): 23 nM; IC50 [1]: 210 nM

Q: Which IC50 (c-Kit(V654A)) does the source give for `Cn1ncc(-c2ccc(CNc3cc(-c4cnc5cc(OCCc6cccnc6)ccn45)ncn3)cc2)n1` [A126, [4-(2-methyl-2H-[1,2,3]triazol-4-yl)-benzyl]-{6-[7-(2-pyridin-3-yl-ethoxy)-imidazo[1,2-a]pyridin-3-yl]-pyrimidin-4-yl}-amine] here?
A: 16 nM

Q: What about the IC50 [1] of the same molecule?
A: 140 nM

Q: For `Cn1cc(-c2ccc(CNc3cc(-c4cnc5cc(OCCN6CC7CC7C6)ccn45)ncn3)cc2)cn1` (stereo not shown) [A127, (6-{7-[2-(3-aza-bicyclo[3.1.0]hex-3-yl)-ethoxy]-imidazo[1,2-a]pyridin-3-yl}-pyrimidin-4-yl)-[4-(1-methyl-1H-pyrazol-4-yl)-benzyl]-amine], which IC50 (c-Kit(V654A)) is on record?
A: 6.7 nM

Q: And the IC50 [1]?
A: 100 nM

Q: `Cn1ncc(-c2ccc(CNc3cc(-c4cnc5cc(OCCN6CC7CC7C6)ccn45)ncn3)cc2)n1` (stereo not shown) [A128, (6-{7-[2-(3-aza-bicyclo[3.1.0]hex-3-yl)-ethoxy]-imidazo[1,2-a]pyridin-3-yl}-pyrimidin-4-yl)-[4-(2-methyl-2H-[1,2,3]triazol-4-yl)-benzyl]-amine] was tested. Which IC50 (c-Kit(V654A)) did it give?
A: 9.9 nM

Q: What about the IC50 [1] of the same molecule?
A: 130 nM

Q: Which results are given for `CN1CCC(CCOc2ccn3c(-c4cc(NCc5ccc(-c6cnn(C)c6)cc5)ncn4)cnc3c2)CC1` [A129, (6-{7-[2-(1-methyl-piperidin-4-yl)-ethoxy]-imidazo[1,2-a]pyridin-3-yl}-pyrimidin-4-yl)-[4-(1-methyl-1H-pyrazol-4-yl)-benzyl]-amine]?
A: IC50 (c-Kit(V654A)): 6.1 nM; IC50 [1]: 62 nM

Q: For `CN1CCC(CCOc2ccn3c(-c4cc(NCc5ccc(-c6cnn(C)n6)cc5)ncn4)cnc3c2)CC1` [A130, (6-{7-[2-(1-methyl-piperidin-4-yl)-ethoxy]-imidazo[1,2-a]pyridin-3-yl}-pyrimidin-4-yl)-[4-(2-methyl-2H-[1,2,3]triazol-4-yl)-benzyl]-amine], which IC50 (c-Kit(V654A)) is on record?
A: 3.5 nM

Q: What about the IC50 [1] of the same molecule?
A: 40 nM

Q: With `CN(C)CCCOc1ccn2c(-c3cc(NCc4ccc(-c5cnn(C)c5)cc4)ncn3)cnc2c1` [A132, {6-[7-(3-dimethylamino-propoxy)-imidazo[1,2-a]pyridin-3-yl]-pyrimidin-4-yl}-[4-(1-methyl-1H-pyrazol-4-yl)-benzyl]-amine] as the molecule, how does the IC50 (c-Kit(V654A)) read?
A: 5 nM

Q: What about the IC50 [1] of the same molecule?
A: 43 nM

Q: How did the IC50 (c-Kit(V654A)) turn out when `Cn1ncc(-c2ccc(CNc3cc(-c4cnc5cc(OCCCO)ccn45)ncn3)cc2)n1` [A134, 3-(3-{6-[4-(2-methyl-2H-[1,2,3]triazol-4-yl)-benzylamino]-pyrimidin-4-yl}-imidazo[1,2-a]pyridin-7-yloxy)-propan-1-ol] was run?
A: 4.6 nM

Q: And the IC50 [1]?
A: 52 nM
